# Reference: PubChem BioAssay AID2060612 (Molecular Pharmacology Branch, DTP, NCI, 2025)
# Tested on: 565232-114-T-J1-PDC complex spheroid viability
# Assay: Anticancer human tumor 565232-114-T-J1-PDC patient-derived bladder carcinoma cell line growth inhibition [CLK]
# Conditions: for IC50: curve of first compound; for viability, T/C: stronger effect = lower value
# Description: A high-throughput screen of multi-cell type tumor spheroids was designed to identify active combinations of […] and targeted small molecules. Complex spheroids include a stromal component modeled by human endothelial cells (HUVEC) and fibroblasts modeled by human mesenchymal stem cells (MSCs). The concentration ranges selected for each drug and investigational agent were based upon clinically achievable concentrations if the clinical Cmax of the agent was known.
# Compounds. The drugs and investigational agents: cirtuvivint (SM08502; NSC835563), CC-671 (NSC850746), vemurafenib (NSC761431), tapotoclax (NSC804041), sotorasib (NSC818433), adagrasib (NSC831453), MRTX-1133 (NSC836407), BAY2416964 (NSC825713), copanlisib (NSC816437), inavolisib (NSC800729), abemaciclib (NSC768073), osimertinib (NSC779217), entinostat (NSC756642), eltanexor (KPT-8602, NSC794443), venetoclax (NSC766270), ceralasertib (NSC777638), bortezomib (NSC756655), olaparib (NSC753686), talazoparib (NSC767125), alisertib (NSC759677), peposertib (NSC802822), gemcitabine (NSC613327), 5-fluorouracil (NSC19893), SN-38 (NSC673596), oxaliplatin (NSC266046), paclitaxel (NSC125973), and doxorubicin (NSC123127), were obtained from the National Cancer Institute (NCI) Developmental Therapeutics Program Chemical Repository. The FDA-approved anticancer drug set is available from the Developmental Therapeutics Program at https://dtp.cancer.gov/organization/dscb/obtaining/available plates.htm. […] The stock solutions were prepared in dimethyl sulfoxide (DMSO, Sigma-Aldrich, St. Louis, MO, cat. D2650), except for the platinum complexes which were prepared in saline (Quality Biological, Gaithersburg, MD, cat. 114-055-101), at 800-fold the tested concentration and stored at -70 degrees C prior to their use. All drugs and investigational agents were tested over a range starting from a high concentration at or near the clinical Cmax and decreasing in half-log increments. If the clinical Cmax for an agent had not been determined, the highest concentration tested was 10 microM.
# Cell Culture. All cells were maintained in an incubator at 37 degrees C and 5% CO2 with 95% humidity. The PDC lines were cultured according to standard operating procedures established by the NCI PDMR. Briefly, all PDCs were thawed and cultured in Matrigel-coated flasks prepared with a working solution of 1X Ham's F-12 nutrient mix, without supplementation (Invitrogen, Waltham, MA, cat. 11765054), 100 U/mL penicillin-streptomycin (Invitrogen, cat. 15140122), and 2.5% Matrigel (Corning Inc., Corning, NY, cat. 354248) for the first three passages. The 947758-054-R-J2-PDC line was cultured in 6B/Colon 1A media, which includes advanced DMEM/F-12 (Thermo Fisher Scientific, cat. 12634028), 10 mM HEPES (Thermo Fisher Scientific, cat. 15630080), 1X GlutaMAX supplement (Thermo Fisher Scientific, cat. 35050061), 0.1 mg/mL primocin (InvivoGen, cat. ant-pm-2), 10% defined fetal bovine serum, heat inactivated (HyClone Laboratories Inc., cat. SH30070.03HI), 1.25 mM N-Acetyl-L-cysteine (Sigma-Aldrich, cat. A9165), 10 mM nicotinamide (Sigma-Aldrich, cat. N0636), 1X B-27 supplement (Thermo Fisher Scientific, cat. 17504044), 1X N-2 supplement (Thermo Fisher Scientific, cat. 17502048), and 10 microM Y-27632 dihydrochloride (Tocris Bioscience, cat. 1254). The 876862-298-R-J1-PDC was cultured in 6E media, which includes all 6B/Colon 1A media components plus 50% L-WRN conditioned media (ATCC, cat. CRL-3276), 50 ng/mL recombinant human EGF recombinant protein (hEGF; Thermo Fisher Scientific, cat. PHG0311), 10 ng/mL recombinant human fibroblast growth factor 10 (hGFG-10; PeproTech, cat. 100-26), 1 ng/mL recombinant human fibroblast growth factor 2 (hFGF-2; PeproTech, cat. 100-18B), and 1 µM prostaglandin E2 (PGE2; Tocris, cat. 2296). The 227483-062-R1-J1-PDC line was cultured in Panc media, containing all 6E components except hFGF-2, with the addition of 500 nM SB-431542 (Selleckchem, cat. S1067) and 10 nM gastrin (Tocris, cat. 3006). […]
# [1] = second compound 0.0316 µM, first compound 0.0316 µM
# [2] = second compound 0.0316 µM, first compound 0.1 µM
# [3] = second compound 0.0316 µM, first compound 0.316 µM
# [4] = second compound 0.0316 µM, first compound 1 µM
# [5] = second compound 0.0316 µM, first compound 3.16 µM
# [6] = second compound 0.0316 µM, first compound 10 µM
# [7] = second compound 0.1 µM, first compound 0.0316 µM
# [8] = second compound 0.1 µM, first compound 0.1 µM
# [9] = second compound 0.1 µM, first compound 0.316 µM
# [10] = second compound 0.1 µM, first compound 1 µM
# [11] = second compound 0.1 µM, first compound 3.16 µM
# [12] = second compound 0.1 µM, first compound 10 µM
# [13] = second compound 0.316 µM, first compound 0.0316 µM
# [14] = second compound 0.316 µM, first compound 0.1 µM
# [15] = second compound 0.316 µM, first compound 0.316 µM
# [16] = second compound 0.316 µM, first compound 1 µM
# [17] = second compound 0.316 µM, first compound 3.16 µM
# [18] = second compound 0.316 µM, first compound 10 µM
# [19] = second compound 1 µM, first compound 0.0316 µM
# [20] = second compound 1 µM, first compound 0.1 µM
# [21] = second compound 1 µM, first compound 0.316 µM
# [22] = second compound 1 µM, first compound 1 µM
# [23] = second compound 1 µM, first compound 3.16 µM
# [24] = second compound 1 µM, first compound 10 µM
# [25] = second compound 3.16 µM, first compound 0.0316 µM
# [26] = second compound 3.16 µM, first compound 0.1 µM
# [27] = second compound 3.16 µM, first compound 0.316 µM
# [28] = second compound 3.16 µM, first compound 1 µM
# [29] = second compound 3.16 µM, first compound 3.16 µM
# [30] = second compound 3.16 µM, first compound 10 µM
# [31] = second compound 10 µM, first compound 0.0316 µM
# [32] = second compound 10 µM, first compound 0.1 µM
# [33] = second compound 10 µM, first compound 0.316 µM
# [34] = second compound 10 µM, first compound 1 µM
# [35] = second compound 10 µM, first compound 3.16 µM
# [36] = second compound 10 µM, first compound 10 µM
# 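Further: spheroids exposed to compounds for 7 days before readout.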
# 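Wherever viability, T/C is given: 100% = DMSO vehicle wells with luminescence normalized to vehicle control.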
structure (smiles),measurement,setting,value
COc1cccc2c1C(=O)c1c(O)c3c(c(O)c1C2=O)CC(O)(C(=O)CO)CC3OC1CC(N)C(O)C(C)O1 (centres undefined) + CN1CCN(c2cc(C(=O)Nc3cc4cc(-c5cnn(C)c5)ccc4cn3)ccn2)CC1,IC50,second compound 0.0316 µM,308 nM
same,IC50,second compound 0.1 µM,247 nM
same,IC50,second compound 0.316 µM,< 31.6 nM
same,IC50,second compound 1 µM,< 31.6 nM
same,IC50,second compound 3.16 µM,< 31.6 nM
same,IC50,second compound 10 µM,< 31.6 nM
same,"viability, T/C",[1],105%
same,"viability, T/C",[2],109%
same,"viability, T/C",[3],48.1%
same,"viability, T/C",[4],9.14%
same,"viability, T/C",[5],0.19%
same,"viability, T/C",[6],0.25%
same,"viability, T/C",[7],115%
same,"viability, T/C",[8],89.1%
same,"viability, T/C",[9],40.7%
same,"viability, T/C",[10],5.59%
same,"viability, T/C",[11],0.19%
same,"viability, T/C",[12],0.21%
same,"viability, T/C",[13],18.3%
same,"viability, T/C",[14],13.6%
same,"viability, T/C",[15],6.17%
same,"viability, T/C",[16],0.17%
same,"viability, T/C",[17],1.79%
same,"viability, T/C",[18],0.82%
same,"viability, T/C",[19],0.13%
same,"viability, T/C",[20],0.18%
same,"viability, T/C",[21],0.16%
same,"viability, T/C",[22],0.17%
same,"viability, T/C",[23],3.15%
same,"viability, T/C",[24],0.74%
same,"viability, T/C",[25],1.46%
same,"viability, T/C",[26],0.16%
same,"viability, T/C",[27],0.94%
same,"viability, T/C",[28],2.29%
same,"viability, T/C",[29],2.17%
same,"viability, T/C",[30],1.43%
same,"viability, T/C",[31],0.09%
same,"viability, T/C",[32],0.11%
same,"viability, T/C",[33],0.22%
same,"viability, T/C",[34],2.57%
same,"viability, T/C",[35],0.16%
same,"viability, T/C",[36],1.03%
COc1cccc2c1C(=O)c1c(O)c3c(c(O)c1C2=O)CC(O)(C(=O)CO)CC3OC1CC(N)C(O)C(C)O1 (centres undefined) + CNC(=O)c1ccc(Nc2nc(OC3CCCC3)c3c(-c4ccc5nc(C)oc5c4)c[nH]c3n2)c(OC)c1,IC50,second compound 0.0316 µM,115 nM
same,IC50,second compound 0.1 µM,< 31.6 nM
same,IC50,second compound 0.316 µM,< 31.6 nM
same,IC50,second compound 1 µM,< 31.6 nM
same,IC50,second compound 3.16 µM,< 31.6 nM
same,IC50,second compound 10 µM,< 31.6 nM
same,"viability, T/C",[1],96.7%
same,"viability, T/C",[2],55.5%
same,"viability, T/C",[3],10%
same,"viability, T/C",[4],0.25%
same,"viability, T/C",[5],0.24%
same,"viability, T/C",[6],0.28%
same,"viability, T/C",[7],44.4%
same,"viability, T/C",[8],22.9%
same,"viability, T/C",[9],7.66%
same,"viability, T/C",[10],0.28%
same,"viability, T/C",[11],0.22%
same,"viability, T/C",[12],0.23%
same,"viability, T/C",[13],21.8%
same,"viability, T/C",[14],18.6%
same,"viability, T/C",[15],5.6%
same,"viability, T/C",[16],0.86%
same,"viability, T/C",[17],0.19%
same,"viability, T/C",[18],1.3%
same,"viability, T/C",[19],15.9%
same,"viability, T/C",[20],12.4%
same,"viability, T/C",[21],3.59%
same,"viability, T/C",[22],0.42%
same,"viability, T/C",[23],0.14%
same,"viability, T/C",[24],0.26%
same,"viability, T/C",[25],12.7%
same,"viability, T/C",[26],9.58%
same,"viability, T/C",[27],2.15%
same,"viability, T/C",[28],0.1%
same,"viability, T/C",[29],0.69%
same,"viability, T/C",[30],0.49%
same,"viability, T/C",[31],13.7%
same,"viability, T/C",[32],9.24%
same,"viability, T/C",[33],3.57%
same,"viability, T/C",[34],0.73%
same,"viability, T/C",[35],1.86%
same,"viability, T/C",[36],0.29%
